Earlier results in patent US20160051485A1, “Biodegradable Bionanoparticles for Releasing the GSE24-2 Peptide, Method for the Production Thereof, and Use of Same” (CONSEJO SUPERIOR DE INVESTIGACIONES (CSIC), priority 2013, published 2016).

System: F9A353V cells
Settings: transfection of the peptide using a lipid compound; previous experiments

## GSE24.2: fragment of 55 amino acids of the internal domain of dyskerin (TRUB domains), activating telomerase (GFINLDKPSNPSSHEVVAWIRRILRVEKTGHSGTLDPKVTGCLIVCIERATRLVK; listed as Homo sapiens)
  Signal of the histone H2AX: reduces the signal of the histone H2AX
